Measured values taken from patent US20100041089A1, “IMPROVED METHOD FOR DETECTING CHEMICAL […]” (priority 2006, published 2010).

Test system: yeast genes (expressed mRNA)
Experiment: DNA chip measurement of expressed mRNA of yeast genes after culture with a toxic chemical substance
Type: cell-based, Saccharomyces cerevisiae S288C
Settings: for level of expressed mRNA in the presence of chemical substance / level in the absence of chemical substance: cultured two hours with the chemical substance; for The level of expressed mRNA in the presence of chemical substance/The level of expressed mRNA in the absence of chemical substance: cultured two hours with substance
Experimental: Yeast (Saccharomyces cerevisiae S288C (a SUC2mal mel gap2 CUP1)) were cultured at 25° C. on YPD medium (yeast extract 1%, polypeptone 2%, glucose 2%). One of toxic chemical substances was added to the cell at logarithmic growth phase, and the cell was further cultured for two hours. Cell was cultured without any chemical substance in the same condition, and was used as a control. Concentrations of the chemical substances were defined to inhibit the growth of the yeast but not lead to death.
After the completion of cultivation, the culture was centrifuged to collect the cells. To the cells, sodium acetate buffer (50 mM sodium acetate, 10 mM EDTA, 1% SDS) was added, and the mixture was shaken at 65° C. for five minutes, followed by returning to room temperature, and obtaining the supernatant, which procedure was repeated two times. To the supernatant, ½ amount of a solution of phenol/chloroform (1:1) was added, and the mixture was centrifuged to give a supernatant, an equal amount of chloroform was added, and the mixture was centrifuged to give a supernatant. To the supernatant, an equal amount of isopropanol containing 0.3 M sodium acetate was added, and the mixture was allowed to stand at room temperature for 30 minutes, after which the mixture was centrifuged to give sediment of the whole RNAs. Seventy % ethanol was added to the sediment, and the mixture was again centrifuged to give sediment, which was then dried and dissolved in water. mRNA was isolated from the whole RNAs as followings. In view of the fact that a poly A chain is attached to the 3′ terminus of mRNA, a polynucleotide having a poly T structure which was immobilized on the surface of latex beads was used to trap the mRNA, and then the mRNA was washed and eluted with spine column (Oligotex-dT30<Super>mRNA Purification Kit, Takara). Reverse transcription of the mRNA was conducted with a reverse transcriptase (Super Script II Reverse Transcriptase; catalogue No. 18064-014, GibcoBRL) using fluorescence-labeled nucleotides to give cDNAs that were introduced with Cy3-dUTP or Cy5-dUTP during the reverse transcription.
The labeled cDNAs were dissolved in TE buffer (10 mM Tris-HCl/1 mM EDTA, pH 8.0), and the solution was dropped on the DNA chip containing the whole genes of yeast (DNA Chip Research Inc. Japan) so that the cDNAs were hybridized on the DNA chip at 65° C. for over 12 hours. The fluoresces intensity of the DNA chip was read with a scanner, and the ratio relative to the fluorescence intensity resulting from the absence of chemical substance was estimated as the following, which is shown in Tables 1 to 9.
In the Tables, “Intensity” indicated in the rightmost column is a value of the level of expressed mRNA of each gene in control cells as divided by the average level of the expressions of the whole genes. A gene of which mRNA level is lower in control, and is higher in cases of addition of chemical substance, is especially useful in the detection of toxic substances.
Here, when a ratio of an amount of mRNA expressed in the presence of the chemical substance to an amount of mRNA expressed in the absence of the chemical substance is two or more, then it is considered significant.

[Cl][Hg][Cl] [(3), HgCl2]
level of expressed mRNA in the presence of chemical substance / level in the absence of chemical substance (yeast gene YDR128W): 1.4
level of expressed mRNA in the presence of chemical substance / level in the absence of chemical substance (yeast gene YDR133C): 2.9
level of expressed mRNA in the presence of chemical substance / level in the absence of chemical substance (yeast gene YDR250C): 0.9
level of expressed mRNA in the presence of chemical substance / level in the absence of chemical substance (yeast gene YDR278C): 0.9
level of expressed mRNA in the presence of chemical substance / level in the absence of chemical substance (yeast gene YDR281C): 0.4
The level of expressed mRNA in the presence of chemical substance/The level of expressed mRNA in the absence of chemical substance (yeast gene YDR330W): 1.2
level of expressed mRNA in the presence of chemical substance / level in the absence of chemical substance (yeast gene YDR366C): 0.8
The level of expressed mRNA in the presence of chemical substance/The level of expressed mRNA in the absence of chemical substance (yeast gene YDR411C): 1.8
The level of expressed mRNA in the presence of chemical substance/The level of expressed mRNA in the absence of chemical substance (yeast gene YDR511W): 0.9
The level of expressed mRNA in the presence of chemical substance/The level of expressed mRNA in the absence of chemical substance (yeast gene YDR545W): 0.6
The level of expressed mRNA in the presence of chemical substance/The level of expressed mRNA in the absence of chemical substance (yeast gene YEL001C): 1.4
The level of expressed mRNA in the presence of chemical substance/The level of expressed mRNA in the absence of chemical substance (yeast gene YER004W): 1.9
The level of expressed mRNA in the presence of chemical substance/The level of expressed mRNA in the absence of chemical substance (yeast gene YER035W): 1.6
The level of expressed mRNA in the presence of chemical substance/The level of expressed mRNA in the absence of chemical substance (yeast gene YER079W): 1.9
The level of expressed mRNA in the presence of chemical substance/The level of expressed mRNA in the absence of chemical substance (yeast gene YER106W): 1.3
The level of expressed mRNA in the presence of chemical substance/The level of expressed mRNA in the absence of chemical substance (yeast gene YER158C): 0.9
The level of expressed mRNA in the presence of chemical substance/The level of expressed mRNA in the absence of chemical substance (yeast gene YER163C): 1.2
The level of expressed mRNA in the presence of chemical substance/The level of expressed mRNA in the absence of chemical substance (yeast gene YER175C): 1.3
The level of expressed mRNA in the presence of chemical substance/The level of expressed mRNA in the absence of chemical substance (yeast gene YFL006W): 1.6
The level of expressed mRNA in the presence of chemical substance/The level of expressed mRNA in the absence of chemical substance (yeast gene YFL010C): 1.3
The level of expressed mRNA in the presence of chemical substance/The level of expressed mRNA in the absence of chemical substance (yeast gene YFL024C): 1.1
The level of expressed mRNA in the presence of chemical substance/The level of expressed mRNA in the absence of chemical substance (yeast gene YFL032W): 1.6
level of expressed mRNA in the presence of chemical substance / level in the absence of chemical substance (yeast gene YFR026C): 1.0
The level of expressed mRNA in the presence of chemical substance/The level of expressed mRNA in the absence of chemical substance (yeast gene YGL037C): 6.5
The level of expressed mRNA in the presence of chemical substance/The level of expressed mRNA in the absence of chemical substance (yeast gene YGL047W): 1.6
The level of expressed mRNA in the presence of chemical substance/The level of expressed mRNA in the absence of chemical substance (yeast gene YGL053W): 1.2
level of expressed mRNA in the presence of chemical substance / level in the absence of chemical substance (yeast gene YGL088W): 0.9
The level of expressed mRNA in the presence of chemical substance/The level of expressed mRNA in the absence of chemical substance (yeast gene YGL121C): 1.4
The level of expressed mRNA in the presence of chemical substance/The level of expressed mRNA in the absence of chemical substance (yeast gene YGL199C): 1.7
level of expressed mRNA in the presence of chemical substance / level in the absence of chemical substance (yeast gene YGR038W): 3.5
The level of expressed mRNA in the presence of chemical substance/The level of expressed mRNA in the absence of chemical substance (yeast gene YGR101W): 1.2
The level of expressed mRNA in the presence of chemical substance/The level of expressed mRNA in the absence of chemical substance (yeast gene YGR110W): 2.2
The level of expressed mRNA in the presence of chemical substance/The level of expressed mRNA in the absence of chemical substance (yeast gene YGR130C): 0.6
level of expressed mRNA in the presence of chemical substance / level in the absence of chemical substance (yeast gene YGR139W): 0.8
The level of expressed mRNA in the presence of chemical substance/The level of expressed mRNA in the absence of chemical substance (yeast gene YGR154C): 2.2
The level of expressed mRNA in the presence of chemical substance/The level of expressed mRNA in the absence of chemical substance (yeast gene YGR221C): 0.9
level of expressed mRNA in the presence of chemical substance / level in the absence of chemical substance (yeast gene YGR243W): 9.4
level of expressed mRNA in the presence of chemical substance / level in the absence of chemical substance (yeast gene YGR293C): 1.6
level of expressed mRNA in the presence of chemical substance / level in the absence of chemical substance (yeast gene YHL006C): 0.9
level of expressed mRNA in the presence of chemical substance / level in the absence of chemical substance (yeast gene YHR095W): 1.5
level of expressed mRNA in the presence of chemical substance / level in the absence of chemical substance (yeast gene YHR105W): 2.4
The level of expressed mRNA in the presence of chemical substance/The level of expressed mRNA in the absence of chemical substance (yeast gene YHR138C): 2.2
level of expressed mRNA in the presence of chemical substance / level in the absence of chemical substance (yeast gene YHR181W): 2.4
The level of expressed mRNA in the presence of chemical substance/The level of expressed mRNA in the absence of chemical substance (yeast gene YHR199C): 3.2
The level of expressed mRNA in the presence of chemical substance/The level of expressed mRNA in the absence of chemical substance (yeast gene YIL023C): 2.1
The level of expressed mRNA in the presence of chemical substance/The level of expressed mRNA in the absence of chemical substance (yeast gene YIL041W): 2.1
The level of expressed mRNA in the presence of chemical substance/The level of expressed mRNA in the absence of chemical substance (yeast gene YIL087C): 3.4
level of expressed mRNA in the presence of chemical substance / level in the absence of chemical substance (yeast gene YIL127C): 0.2
level of expressed mRNA in the presence of chemical substance / level in the absence of chemical substance (yeast gene YJL017W): 3.5
level of expressed mRNA in the presence of chemical substance / level in the absence of chemical substance (yeast gene YJL037W): 1.4
The level of expressed mRNA in the presence of chemical substance/The level of expressed mRNA in the absence of chemical substance (yeast gene YJL057C): 1.6
The level of expressed mRNA in the presence of chemical substance/The level of expressed mRNA in the absence of chemical substance (yeast gene YJL066C): 1.2
The level of expressed mRNA in the presence of chemical substance/The level of expressed mRNA in the absence of chemical substance (yeast gene YJL082W): 2.4
